Patent US12194007B2, “Pharmaceutical composition for preventing or treating cancer, comprising gossypol, phenformin, and anticancer agent” (National Cancer Center, priority 2018, dated 2025)
Where two headings read alike, the source gives them in different places.

Tests used:
[1] = system: A549 cell line or H522 cell line; assay: SRB cell proliferation assay, non-small cell lung cancer cell lines; type: cell-based; conditions: for effect of inhibiting cell proliferation in the triple drug treatment group: cisplatin 20 μM or 5-FU 5 μM mixed with gossypol 5 μM and phenformin 100 μM (Tables 11-12, FIGS. 4B, 4C); for synergistic effect of anticancer action when mixed with gossypol and phenformin: lung cancer (NSCLC), cisplatin 20 μM or 5-FU 5 μM + gossypol 5 μM + phenformin 100 μM; for synergistic effect of anticancer action when mixed with gossypol and phenformin / degree of cell proliferation with respect to the untreated control: irinotecan 1 μM; for degree of cell proliferation with respect to the untreated control: gossypol 5 μM, phenformin 100 μM, single, double or triple (Table 10, FIG. 4A)
[2] = system: SK-OV-3 or OVCAR3 cell line; assay: SRB cell proliferation assay, ovarian cancer cell lines; type: cell-based; conditions: for synergistic effect of anticancer action when mixed with gossypol and phenformin: ovarian cancer, paclitaxel 50 nM or irinotecan 0.5 μM + gossypol 5 μM + phenformin 100 μM; for synergistic effect of anticancer action when mixed with gossypol and phenformin / degree of cell proliferation with respect to the untreated control: cisplatin 1 nM; for effect of inhibiting cell proliferation in the triple drug treatment group: paclitaxel 50 nM or irinotecan 0.5 μM mixed with gossypol 5 μM and phenformin 100 μM (Tables 17-18, FIGS. 6B, 6C); for degree of cell proliferation with respect to the untreated control: gossypol 5 μM, phenformin 100 μM, single or double (Table 16, FIG. 6A)
[3] = system: PC3 cell line or DU145 cell line; assay: SRB cell proliferation assay, prostate cancer cell lines; type: cell-based; conditions: for effect of inhibiting cell proliferation in the triple drug treatment group: docetaxel 50 nM or irinotecan 0.5 μM mixed with gossypol 5 μM and phenformin 100 μM (Tables 20-21, FIGS. 7B, 7C)
[4] = system: SNU638 cells xenograft tumor; assay: Gastric cancer mouse model, tumor growth; type: in vivo, Balb/c-nu mice; conditions: gossypol 80 mg/kg, phenformin 100 mg/kg, irinotecan 30 mg/kg, single, double or triple; vs solvent control (Table 27, FIGS. 12A, 12B)
Description: First, in order to make a lung cancer mouse model, 6 to 8 week old Balb/c-nu mice (Central Lab. Animal, Highland Heights, KY, USA) were prepared. In addition, 7.5×10^6 A549 cell line was cultured, and was injected subcutaneously to the prepared mice with a 1 ml syringe. Mice were reared for 1 week and divided into 4 groups of 8 mice each, and these were used as a control group or an experimental group as defined in [Table 24] and [Table 25]. The solvent or drug was orally administered to the mice of the solvent control group, the double drug treatment group, and the triple drug treatment group once a day, 6 days per week, and while administering intravenously irinotecan to the mice of the single treatment group with irinotecan once a day, 1 day per week, the mice were reared in the same environment for a total of 49 days. While breeding, the average was obtained by checking the weight and size of the tumor of the mouse group every 7 days. After injection of lung cancer cells, the initial tumor size was specified using a calliper. The tumor volume was calculated according to the following [Equation 1].
Specifically, the mouse model with the gastric cancer was prepared by the same method as the method of preparing the lung cancer mouse model in [Example 9], except that the mouse model with the gastric cancer was prepared by xenografting SNU638 cells (1.5×10^7). Then, the prepared mouse model with the gastric cancer was used as a control group or an experimental group as defined in the following [Table 27].

[5] = system: UACC62 cell line or an A375 cell line; assay: SRB cell proliferation assay, melanoma cell lines; type: cell-based; conditions: for degree of cell proliferation with respect to the untreated control: gossypol 5 μM, phenformin 100 μM, single, double or triple (Table 4, FIG. 2A); for effect of inhibiting cell proliferation in the triple drug treatment group: cisplatin or oxaliplatin 10 μM mixed with gossypol 5 μM and phenformin 100 μM (Tables 5-6, FIGS. 2B, 2C)
[6] = system: ACHN cell line or CAKI-1 cell line; assay: SRB cell proliferation assay, kidney cancer cell lines; type: cell-based; conditions: for degree of cell proliferation with respect to the untreated control: gossypol 2.5 μM, phenformin 100 μM, sorafenib 10 μM, single, double or triple (Table 1, FIG. 1A)
Description: Specifically, while culturing the ACHN cell line or CAKI-1 cell line, which is a kidney cancer cell line, each cell was inoculated into a 96-well plate at a density of 5,000 to 20,000 cells/well depending on the amplification phase of the culture time. After inoculation, the anticancer agent mixtures of the following [Table 1] to [Table 3] were added to each well and cultured in a CO2 incubator for 24 hours. The anticancer agent mixture was prepared so that the final concentration of each anticancer agent can be appropriately added by mixing each at a stock concentration and then adding 100 μl each. After treatment with the anticancer agent, cells were further cultured for 48 hours, and then 10% (w/v) trichloroacetic acid (TCA) was added to each well and incubated at 4° C. for 60 minutes to fix the cells. The supernatant liquid other than the fixed cells was removed, the plate was washed 5 times with tap water, and then dried in air. After drying, 100 μl of 0.4% (w/v) sulforhodamine B buffer solution containing 1% acetic acid was added to each well, and left at room temperature for 5 minutes to stain the cells. After staining the cells, the cells were washed 5 times with 1% acetic acid to remove unstained dye and then dried in air. The colored dye was immobilized with 10 mM trizma base, and then absorbance was measured at 515 nm using a plate reader. As an untreated control, the degree of cell proliferation of a cell line cultured without treatment with an anticancer agent was measured, and the degree of cell proliferation of each experimental group with respect to the untreated control was calculated as a relative ratio and expressed as a percentage (%).

[7] = system: SNU449 or Huh7 cell line; assay: SRB cell proliferation assay, liver cancer cell lines; type: cell-based; conditions: for degree of cell proliferation with respect to the untreated control: gossypol 5 μM, phenformin 100 μM, cisplatin 1 μM, single or double (Table 22, FIG. 8A); for synergistic effect of anticancer action when mixed with gossypol and phenformin: liver cancer, cisplatin 1 μM or sorafenib 5 μM + gossypol 5 μM + phenformin 100 μM
[8] = system: HT29 cell line or Colo205 cell line; assay: SRB cell proliferation assay, colorectal cancer cell lines; type: cell-based; conditions: for degree of cell proliferation with respect to the untreated control: gossypol 2.5 μM, phenformin 50 μM, irinotecan 1 μM, single, double or triple (Table 7, FIG. 3A); for synergistic effect of anticancer action when mixed with gossypol and phenformin: colon cancer, irinotecan 1 μM (phenformin 50 μM) or cisplatin/capecitabine 10 μM (phenformin 75 μM) + gossypol 2.5 μM; for effect of inhibiting cell proliferation in the triple drug treatment group: cisplatin or capecitabine 10 μM mixed with gossypol 2.5 μM and phenformin 75 μM (Tables 8-9, FIGS. 3B, 3C)
[9] = system: BT549 cell line or MB231 cell line; assay: SRB cell proliferation assay, breast cancer cell lines; type: cell-based; conditions: for degree of cell proliferation with respect to the untreated control: gossypol 5 μM, phenformin 100 μM, third agent per Table 13 paclitaxel 50 nM, single, double or triple (FIG. 5A); for synergistic effect of anticancer action when mixed with gossypol and phenformin: breast cancer, named agent + gossypol 5 μM + phenformin 100 μM (Tables 13-15)

SMILES: O=c1[nH]cc(F)c(=O)[nH]1 [5-FU, 5-fluorouracil]
- effect of inhibiting cell proliferation in the triple drug treatment group [1]: level similar to that of the double drug treatment group
- synergistic effect of anticancer action when mixed with gossypol and phenformin [1]: not exhibited

SMILES: CC(=O)O[C@H]1C(=O)[C@@]2(C)[C@H]([C@H](OC(=O)c3ccccc3)[C@]3(O)C[C@H](OC(=O)[C@H](O)[C@@H](NC(=O)c4ccccc4)c4ccccc4)C(C)=C1C3(C)C)[C@]1(OC(C)=O)CO[C@@H]1C[C@@H]2O [paclitaxel]
- synergistic effect of anticancer action when mixed with gossypol and phenformin [2]: not exhibited
- effect of inhibiting cell proliferation in the triple drug treatment group [2]: level similar to that of the double drug treatment group

SMILES: NC(N)=N/C(N)=N/CCc1ccccc1 [phenformin]
- degree of cell proliferation with respect to the untreated control [1]: proliferation of cancer cells could be inhibited at a significant level
- degree of cell proliferation with respect to the untreated control ([3]; gossypol 5 μM, phenformin 100 μM, doxorubicin 1 nM, single, double or triple (Table 19, FIG. 7A)): proliferation of cancer cells could be inhibited at a significant level
- level of tumor growth [4]: a level similar to levels of tumor growth
- degree of cell proliferation with respect to the untreated control [2]: proliferation of cancer cells could be inhibited at a significant level
- degree of cell proliferation with respect to the untreated control ([5]; vemurafenib 0.5 μM): proliferation of cancer cells could be inhibited at a significant level
- degree of cell proliferation with respect to the untreated control [6]: proliferation of cancer cells could be inhibited
- degree of cell proliferation with respect to the untreated control [7]: proliferation of cancer cells could be inhibited at a significant level
- degree of cell proliferation with respect to the untreated control [8]: proliferation of cancer cells could be inhibited at a significant level
- degree of cell proliferation with respect to the untreated control [9]: proliferation of cancer cells could be inhibited at a significant level

SMILES: CCc1c2c(nc3ccc(OC(=O)N4CCC(N5CCCCC5)CC4)cc13)-c1cc3c(c(=O)n1C2)COC(=O)[C@]3(O)CC [irinotecan]
- degree of cell proliferation with respect to the untreated control [1]: proliferation of cancer cells could be inhibited at a significant level
- synergistic effect of anticancer action when mixed with gossypol and phenformin [1]: can exhibit a synergistic effect
- effect of inhibiting cell proliferation in the triple drug treatment group [3]: level similar to that of the double drug treatment group
- level of tumor growth [4]: significantly decreased the level of tumor growth
- synergistic effect of anticancer action when mixed with gossypol and phenformin [2]: not exhibited
- effect of inhibiting cell proliferation in the triple drug treatment group [2]: level similar to that of the double drug treatment group
- synergistic effect of anticancer action when mixed with gossypol and phenformin [8]: can exhibit a synergistic effect
- degree of cell proliferation with respect to the untreated control [8]: proliferation of cancer cells could be inhibited at a significant level
- synergistic effect of anticancer action when mixed with gossypol and phenformin [9]: can exhibit a synergistic effect
- degree of cell proliferation with respect to the untreated control [9]: proliferation of cancer cells could be inhibited at a significant level

SMILES: O=C1[O][Pt]2([NH][C@@H]3CCCC[C@H]3[NH]2)[O]C1=O [oxaliplatin]
- effect of inhibiting cell proliferation in the triple drug treatment group [5]: level similar to that of the double drug treatment group

SMILES: N.N.[Cl][Pt][Cl] [cisplatin]
- effect of inhibiting cell proliferation in the triple drug treatment group [1]: level similar to that of the double drug treatment group
- synergistic effect of anticancer action when mixed with gossypol and phenformin [1]: not exhibited
- degree of cell proliferation with respect to the untreated control [2]: proliferation of cancer cells could be inhibited at a significant level
- synergistic effect of anticancer action when mixed with gossypol and phenformin [2]: can exhibit a synergistic effect
- effect of inhibiting cell proliferation in the triple drug treatment group [5]: level similar to that of the double drug treatment group
- synergistic effect of anticancer action when mixed with gossypol and phenformin ([5]; melanoma, vemurafenib 0.5 μM, cisplatin 10 μM or oxaliplatin 10 μM + gossypol 5 μM + phenformin 100 μM): not exhibited
- degree of cell proliferation with respect to the untreated control [7]: proliferation of cancer cells could be inhibited at a significant level
- synergistic effect of anticancer action when mixed with gossypol and phenformin [7]: can exhibit a synergistic effect
- effect of inhibiting cell proliferation in the triple drug treatment group [8]: level similar to that of the double drug treatment group
- synergistic effect of anticancer action when mixed with gossypol and phenformin [8]: not exhibited
- synergistic effect of anticancer action when mixed with gossypol and phenformin [9]: not exhibited
- effect of inhibiting cell proliferation in the triple drug treatment group ([9]; cisplatin 1 μM or doxorubicin 1 μM mixed with gossypol 5 μM and phenformin 100 μM (Tables 14-15, FIGS. 5B, 5C)): level similar to that of the double drug treatment group

SMILES: CC(=O)O[C@@]12CO[C@@H]1C[C@H](O)[C@@]1(C)C(=O)[C@H](O)C3=C(C)[C@@H](OC(=O)[C@H](O)[C@@H](NC(=O)OC(C)(C)C)c4ccccc4)C[C@@](O)([C@@H](OC(=O)c4ccccc4)[C@H]21)C3(C)C [docetaxel]
- effect of inhibiting cell proliferation in the triple drug treatment group [3]: level similar to that of the double drug treatment group

SMILES: Cc1cc2c(C(C)C)c(O)c(O)c(C=O)c2c(O)c1-c1c(C)cc2c(C(C)C)c(O)c(O)c(C=O)c2c1O [gossypol]
- degree of cell proliferation with respect to the untreated control [1]: proliferation of cancer cells could be inhibited at a significant level
- degree of cell proliferation with respect to the untreated control [3]: proliferation of cancer cells could be inhibited at a significant level
- level of tumor growth [4]: a level similar to levels of tumor growth
- degree of cell proliferation with respect to the untreated control [2]: proliferation of cancer cells could be inhibited at a significant level
- degree of cell proliferation with respect to the untreated control ([5]; vemurafenib 0.5 μM): proliferation of cancer cells could be inhibited at a significant level
- degree of cell proliferation with respect to the untreated control [6]: proliferation of cancer cells could be inhibited
- degree of cell proliferation with respect to the untreated control [7]: proliferation of cancer cells could be inhibited at a significant level
- degree of cell proliferation with respect to the untreated control [8]: proliferation of cancer cells could be inhibited at a significant level
- degree of cell proliferation with respect to the untreated control [9]: proliferation of cancer cells could be inhibited at a significant level

SMILES: CNC(=O)c1cc(Oc2ccc(NC(=O)Nc3ccc(Cl)c(C(F)(F)F)c3)cc2)ccn1 [sorafenib]
- degree of cell proliferation with respect to the untreated control [6]: proliferation of cancer cells could be inhibited
- synergistic effect of anticancer action when mixed with gossypol and phenformin ([6]; renal cell carcinoma, named agent 10 μM + gossypol 2.5 μM + phenformin 100 μM): can exhibit a synergistic effect
- synergistic effect of anticancer action when mixed with gossypol and phenformin [7]: not exhibited
- effect of inhibiting cell proliferation in the triple drug treatment group ([7]; sorafenib 5 μM mixed with gossypol 5 μM and phenformin 100 μM (Table 23, FIG. 8B)): level similar to that of the double drug treatment group

SMILES: CCCCCOC(=O)Nc1nc(=O)n([C@@H]2O[C@H](C)[C@@H](O)[C@H]2O)cc1F [capecitabine]
- effect of inhibiting cell proliferation in the triple drug treatment group [8]: level similar to that of the double drug treatment group
- synergistic effect of anticancer action when mixed with gossypol and phenformin [8]: not exhibited
